Experimental data from patent US11419921B2, “Methods of treating neurological disorders” (EnClear Therapies, Inc., priority 2018, dated 2022).

Experiments:
(GR)10 [1] = assay: Cleavage of (GR)10 by enzymes in solution (PBS with CaCl2 and MgCl2), LC/MS of GR repeats; type: biochemical; settings: (GR)10 50 μM
Protocol: • (GR)10 dipeptide (also (GR)8, (GR)6, (GR)4, (GR)2) were synthetized by solid-phase synthesis by CanPeptide; All peptides are uncapped and supplied lyophilized with TFA as counter ions. Purity was always above 95%. • Buffer: PBS buffer containing CaCl2 and MgCl2. • Stock solution of enzyme (e.g., 10 mg/mL) (prepared per manufacturer instructions) in PBS. Activators added as necessary. • Working solution of protein of the desired concentration (e.g., 100 μg/mL) prepared immediately before use by diluting the stock solution (e.g., 5 μL of 10 mg/mL stock solution) in PBS buffer (e.g., in 495 μL of PBS). Exemplary Procedure Using 50 μM Concentrations of (GR)10
25 μL of a 100 μM solution of (GR)10 was added to each well of a 96-well plate. 25 μL of a solution of enzyme (two times the desired final enzyme concentration) was added, and the plates were incubated at room temperature. At the specified time points (5 minutes, 10 minutes, 30 minutes, 60 minutes, and 180 minutes) 2.5 μL of a 10% TFA solution were added to stop the reaction. For the time 0 min well, the TFA was added to the well before addition of the enzyme. After last time point, all samples were further diluted with 150 μL of dilution solution. The quenched reaction mixtures were analyzed by LC/MS to determine the concentration of GR repeats of different lengths.
The chromatography and mass spectrometry conditions utilized are shown in Table 2 and Table 3, respectively.

(GR)10 [2] = assay: (GR)10 digestion by immobilized proteases stored at 4° C. for over 2 months; type: biochemical; settings: 200 μM (GR)10 in PBS, 5 or 60 minute treatment, FIGS. 8C, 8D
Protocol: (GR)10 was prepared in water to a stock concentration of 10 mM then diluted to a concentration of 200 μM in PBS with Ca^2+ and Mg^2+. (GR)10 samples were then treated with agarose resins having immobilized trypsin or elastase, PBS alone, or agarose resin alone, for 5 minutes or 60 minutes at room temperature. Resins were prepared by a routine method as commonly used by persons of ordinary skill in the art (e.g., the binding reaction described in the POROS™ 20 AL, EP and OH Perfusion Chromatography Bulk Media for Activated Affinity Chromatography Product Information Sheet, ThermoFisher Scientific, Waltham, Mass., Pub. No. 8-0031-40-0993, Rev. C., (incorporated herein by reference in its entirety)) and stored at 4° C. for over 2 months.
50 μl of treated samples were prepared for LC/MS analysis by adding 2.5 μl of 10% trifluoroacetic acid to each sample and 150 μl of dilution solution (0.5% formic acid in ACN/MeOH [50:50]).

iCell® motor neurons = assay: Toxicity of (GR)10, untreated or protease-treated, on iCell motor neurons; type: cell-based; settings: (GR)10 concentrations of 25, 50 and 100 μM
Protocol: 200 μM of (GR)10 were diluted in human cerebrospinal fluid (CSF) and 400 μL were applied to each immobilized proteases. The reaction was incubated 5 minutes at room temperature with end-to-end mixing. Columns were spun down 1 minute at 1,000 Xg to recover digested GR dipeptides. Columns were washed with 12 resin volumes of PBS. The procedure was repeated with 60 minutes digestion time. 100 μL of each samples were transferred to a clean tube, flash-frozen and subsequently used for LC/MS quantification of GR repeats of different lengths. The remaining 300 μL of each samples were flash-frozen and used to assess neuron toxicity.
300 μL of CSF were applied to each immobilized proteases and incubated 60 minutes at room temperature with end-to-end mixing. Columns were spun down 1 minute at 1,000 Xg to recover treated CSF. Samples were flash-frozen and subsequently used to test neuron toxicity.
This example describes the reduced toxicity of (GR)10 on in vitro neuronal cells by digestion of (GR)10 with proteases.

Thrombin was tested, and the “(GR)1 concentration” value ((GR)10 [1]; enzyme 2.5 μg/mL, 0 min) was “BLQ”, the “(GR)2 concentration” value ((GR)10 [1]; enzyme 2.5 μg/mL, 0 min) was “BLQ” and the “(GR)4 concentration” value ((GR)10 [1]; enzyme 2.5 μg/mL, 0 min) was 0.1 µM. For the same substance, the “(GR)6 concentration” value ((GR)10 [1]; enzyme 2.5 μg/mL, 0 min) was 0.1 µM, the “(GR)8 concentration” value ((GR)10 [1]; enzyme 2.5 μg/mL, 0 min) was 1.1 µM and the “(GR)10 concentration” value ((GR)10 [1]; enzyme 2.5 μg/mL, 0 min) was 37.7 µM. The “(GR)1 concentration” value ((GR)10 [1]; enzyme 2.5 μg/mL, 5 min) was “BLQ”, the “(GR)2 concentration” value ((GR)10 [1]; enzyme 2.5 μg/mL, 5 min) was “BLQ” and the “(GR)4 concentration” value ((GR)10 [1]; enzyme 2.5 μg/mL, 5 min) was 0.1 µM. For the same substance, the “(GR)6 concentration” value ((GR)10 [1]; enzyme 2.5 μg/mL, 5 min) was 0.1 µM, the “(GR)8 concentration” value ((GR)10 [1]; enzyme 2.5 μg/mL, 5 min) was 1.5 µM and the “(GR)10 concentration” value ((GR)10 [1]; enzyme 2.5 μg/mL, 5 min) was 42.9 µM. The “(GR)1 concentration” value ((GR)10 [1]; enzyme 2.5 μg/mL, 10 min) was “BLQ”, the “(GR)2 concentration” value ((GR)10 [1]; enzyme 2.5 μg/mL, 10 min) was “BLQ” and the “(GR)4 concentration” value ((GR)10 [1]; enzyme 2.5 μg/mL, 10 min) was 0.1 µM. The “(GR)6 concentration” value ((GR)10 [1]; enzyme 2.5 μg/mL, 10 min) was “BLQ”, the “(GR)8 concentration” value ((GR)10 [1]; enzyme 2.5 μg/mL, 10 min) was 1.4 µM and the “(GR)10 concentration” value ((GR)10 [1]; enzyme 2.5 μg/mL, 10 min) was 46.7 µM. For the same substance, the “(GR)1 concentration” value ((GR)10 [1]; enzyme 2.5 μg/mL, 30 min) was “BLQ”, the “(GR)2 concentration” value ((GR)10 [1]; enzyme 2.5 μg/mL, 30 min) was 0.1 µM and the “(GR)4 concentration” value ((GR)10 [1]; enzyme 2.5 μg/mL, 30 min) was 0.2 µM. The “(GR)6 concentration” value ((GR)10 [1]; enzyme 2.5 μg/mL, 30 min) was 0.1 µM, the “(GR)8 concentration” value ((GR)10 [1]; enzyme 2.5 μg/mL, 30 min) was 1.3 µM and the “(GR)10 concentration” value ((GR)10 [1]; enzyme 2.5 μg/mL, 30 min) was 49.1 µM. The “(GR)1 concentration” value ((GR)10 [1]; enzyme 2.5 μg/mL, 60 min) was 0.1 µM, the “(GR)2 concentration” value ((GR)10 [1]; enzyme 2.5 μg/mL, 60 min) was 0.2 µM and the “(GR)4 concentration” value ((GR)10 [1]; enzyme 2.5 μg/mL, 60 min) was 0.3 µM. The “(GR)6 concentration” value ((GR)10 [1]; enzyme 2.5 μg/mL, 60 min) was 0.1 µM, the “(GR)8 concentration” value ((GR)10 [1]; enzyme 2.5 μg/mL, 60 min) was 1.1 µM and the “(GR)10 concentration” value ((GR)10 [1]; enzyme 2.5 μg/mL, 60 min) was 56.2 µM. For the same substance, the “(GR)1 concentration” value ((GR)10 [1]; enzyme 2.5 μg/mL, 120 min) was 0.2 µM, the “(GR)2 concentration” value ((GR)10 [1]; enzyme 2.5 μg/mL, 120 min) was 0.2 µM and the “(GR)4 concentration” value ((GR)10 [1]; enzyme 2.5 μg/mL, 120 min) was 0.4 µM. The “(GR)6 concentration” value ((GR)10 [1]; enzyme 2.5 μg/mL, 120 min) was 0.3 µM, the “(GR)8 concentration” value ((GR)10 [1]; enzyme 2.5 μg/mL, 120 min) was “BLQ” and the “(GR)10 concentration” value ((GR)10 [1]; enzyme 2.5 μg/mL, 120 min) was 45.3 µM. For the same substance, the “(GR)1 concentration” value ((GR)10 [1]; enzyme 10 μg/mL, 0 min) was “BLQ”, the “(GR)2 concentration” value ((GR)10 [1]; enzyme 10 μg/mL, 0 min) was “BLQ” and the “(GR)4 concentration” value ((GR)10 [1]; enzyme 10 μg/mL, 0 min) was 0.1 µM. The “(GR)6 concentration” value ((GR)10 [1]; enzyme 10 μg/mL, 0 min) was “BLQ”, the “(GR)8 concentration” value ((GR)10 [1]; enzyme 10 μg/mL, 0 min) was 1.3 µM and the “(GR)10 concentration” value ((GR)10 [1]; enzyme 10 μg/mL, 0 min) was 52.0 µM. For the same substance, the “(GR)1 concentration” value ((GR)10 [1]; enzyme 10 μg/mL, 5 min) was 0.1 µM, the “(GR)2 concentration” value ((GR)10 [1]; enzyme 10 μg/mL, 5 min) was 0.1 µM and the “(GR)4 concentration” value ((GR)10 [1]; enzyme 10 μg/mL, 5 min) was 0.2 µM. The “(GR)6 concentration” value ((GR)10 [1]; enzyme 10 μg/mL, 5 min) was “BLQ”, the “(GR)8 concentration” value ((GR)10 [1]; enzyme 10 μg/mL, 5 min) was “BLQ” and the “(GR)10 concentration” value ((GR)10 [1]; enzyme 10 μg/mL, 5 min) was 54.8 µM. For the same substance, the “(GR)1 concentration” value ((GR)10 [1]; enzyme 10 μg/mL, 10 min) was 0.1 µM, the “(GR)2 concentration” value ((GR)10 [1]; enzyme 10 μg/mL, 10 min) was 0.1 µM and the “(GR)4 concentration” value ((GR)10 [1]; enzyme 10 μg/mL, 10 min) was 0.2 µM. The “(GR)6 concentration” value ((GR)10 [1]; enzyme 10 μg/mL, 10 min) was 0.1 µM, the “(GR)8 concentration” value ((GR)10 [1]; enzyme 10 μg/mL, 10 min) was 1.0 µM and the “(GR)10 concentration” value ((GR)10 [1]; enzyme 10 μg/mL, 10 min) was 59.4 µM. The “(GR)1 concentration” value ((GR)10 [1]; enzyme 10 μg/mL, 30 min) was 0.3 µM, the “(GR)2 concentration” value ((GR)10 [1]; enzyme 10 μg/mL, 30 min) was 0.4 µM and the “(GR)4 concentration” value ((GR)10 [1]; enzyme 10 μg/mL, 30 min) was 0.4 µM. For the same substance, the “(GR)6 concentration” value ((GR)10 [1]; enzyme 10 μg/mL, 30 min) was 0.4 µM, the “(GR)8 concentration” value ((GR)10 [1]; enzyme 10 μg/mL, 30 min) was 1.3 µM and the “(GR)10 concentration” value ((GR)10 [1]; enzyme 10 μg/mL, 30 min) was 48.6 µM. The “(GR)1 concentration” value ((GR)10 [1]; enzyme 10 μg/mL, 60 min) was 0.5 µM, the “(GR)2 concentration” value ((GR)10 [1]; enzyme 10 μg/mL, 60 min) was 0.6 µM and the “(GR)4 concentration” value ((GR)10 [1]; enzyme 10 μg/mL, 60 min) was 0.8 µM. The “(GR)6 concentration” value ((GR)10 [1]; enzyme 10 μg/mL, 60 min) was 0.5 µM, the “(GR)8 concentration” value ((GR)10 [1]; enzyme 10 μg/mL, 60 min) was 2.4 µM and the “(GR)10 concentration” value ((GR)10 [1]; enzyme 10 μg/mL, 60 min) was 55.2 µM. The “(GR)1 concentration” value ((GR)10 [1]; enzyme 10 μg/mL, 120 min) was 1.1 µM, the “(GR)2 concentration” value ((GR)10 [1]; enzyme 10 μg/mL, 120 min) was 1.4 µM and the “(GR)4 concentration” value ((GR)10 [1]; enzyme 10 μg/mL, 120 min) was 1.6 µM. For the same substance, the “(GR)6 concentration” value ((GR)10 [1]; enzyme 10 μg/mL, 120 min) was 1.3 µM, the “(GR)8 concentration” value ((GR)10 [1]; enzyme 10 μg/mL, 120 min) was 3.0 µM and the “(GR)10 concentration” value ((GR)10 [1]; enzyme 10 μg/mL, 120 min) was 48.7 µM.

“agarose resin having immobilized elastase: elastase immobilized in-house on agarose resin” was tested, and the “(GR)10 proteolytic activity after storage at 4° C. for over 2 months” value ((GR)10 [2]) was “did not exhibit substantial (GR)10 proteolytic activity” and the “Effect of protease treatment of (GR)10 on (GR)10 toxicity” value (iCell® motor neurons) was “abrogation of (GR)10 toxicity”.
